Target: Pyruvate dehydrogenase kinase 3 (PDK3) (Homo sapiens, UniProt Q15120)
Assay: intrinsic Trp fluorescence quenching of purified PDK3
Assay type: binding

Sequence of Pyruvate dehydrogenase kinase 3 (PDK3) (Q15120 whole entry): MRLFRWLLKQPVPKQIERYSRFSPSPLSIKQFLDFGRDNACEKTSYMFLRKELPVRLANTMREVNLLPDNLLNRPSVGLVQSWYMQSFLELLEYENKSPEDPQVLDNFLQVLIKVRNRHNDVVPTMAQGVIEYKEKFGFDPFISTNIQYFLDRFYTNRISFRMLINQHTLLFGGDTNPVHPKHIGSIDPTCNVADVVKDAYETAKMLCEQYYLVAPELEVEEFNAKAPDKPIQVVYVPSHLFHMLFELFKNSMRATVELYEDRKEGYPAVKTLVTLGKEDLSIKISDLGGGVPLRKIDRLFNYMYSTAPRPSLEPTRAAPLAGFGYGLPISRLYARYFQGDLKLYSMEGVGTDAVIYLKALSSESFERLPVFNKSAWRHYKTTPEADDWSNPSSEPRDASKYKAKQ

- Kd: 8.77 µM
Structure (SMILES): O=c1c(O)c(-c2cc(O)c(O)c(O)c2)oc2cc(O)cc(O)c12 [MT, Myricetin]

From article PMC11238318 (ACS Omega, 2024)
